From patent US20250352539A1, “COMBINATION THERAPY FOR TREATING CANCER” (AstraZeneca AB, priority 2022, published 2025)
Read-outs that look alike come from different tables or passages of the source.

Tests used:
Assay in all cases: 144-hour CellTiter-Glo 2.0 proliferation assay
Format in all cases: cell-based
KE-39 = KE-39 gastric; monotherapy; read-out: mono GI50
Experimental: (§1) Combination profiling was carried out in a panel of cancer cell lines utilising Horizon Discovery's High Throughput Screening platform.
(§2) Cell lines that have been preserved in liquid nitrogen are thawed and expanded in growth media (see Table 1). Once cells have reached expected doubling times, screening begins. Cells are seeded in 25 μl of growth media in black 384-well tissue culture treated plates (seeding density as noted in Table 11).
(§3) Cells are equilibrated in assay plates via centrifugation and placed at 37° C. 5% CO2 for twenty-four hours before treatment.
(§4) Compounds are transferred to assay plates using and Echo acoustic liquid handling system. 25 nl of each compound was added at the appropriate concentration for all combination dose points. Therefore, final assay volume would be […]. Assay plates are incubated with compound for 6 days and are then analysed using CellTiter-Glo 2.0. All data points are collected via automated processes and are subject to quality control and analysed.
(§5) Growth Inhibition (GI) is reported as a measure of cell growth. The GI percentages are calculated by applying the following test and equation: […]
(§6) where T is the signal measure for a test article, V is the untreated/vehicle-treated control measure, and Vo is the untreated/vehicle control measure at time zero (also colloquially referred as T0 plates). This formula is derived from the Growth Inhibition calculation used in the National Cancer Institute's NCI-60 high throughput screen. For the purposes of this report, all data analysis was performed in Growth Inhibition (except where noted).

RKO = conditions: Homo sapiens; RKO colorectal; monotherapy; read-out: mono GI50
Experimental: as §1, §2, §3, §4, §5, §6

Caov-3 = conditions: Homo sapiens; Caov-3 ovarian; monotherapy; read-out: mono GI50
Experimental: as §1, §2, §3, §4, §5, §6

OVCAR-3 = conditions: Homo sapiens; OVCAR-3 ovarian; monotherapy; read-out: mono GI50
Experimental: as §1, §2, §3, §4, §5, §6

PA-1 = conditions: Homo sapiens; PA-1 ovarian; monotherapy; read-out: mono GI50
Experimental: as §1, §2, §3, §4, §5, §6

BxPC-3 = conditions: monotherapy, read-out: mono GI50
Experimental: as §1, §2, §3, §4, §5, §6

NCI-SNU-1 = NCI-SNU-1 gastric; monotherapy; read-out: mono GI50
Experimental: as §1, §2, §3, §4, §5, §6

SNU-668 = conditions: SNU668; SNU-668 gastric; monotherapy; read-out: mono GI50
Experimental: as §1, §2, §3, §4, §5, §6

OVK18 = OVK18 ovarian; monotherapy; read-out: mono GI50
Experimental: as §1, §2, §3, §4, §5, §6

IM-95 = conditions: Homo sapiens, IM95; IM-95 gastric; monotherapy; read-out: mono GI50
Experimental: as §1, §2, §3, §4, §5, §6

LS-513 = conditions: Homo sapiens; LS-513 colorectal; monotherapy; read-out: mono GI50
Experimental: as §1, §2, §3, §4, §5, §6

GCIY = conditions: Homo sapiens; GCIY gastric; monotherapy; read-out: mono GI50
Experimental: as §1, §2, §3, §4, §5, §6

OV7 = OV7 ovarian; monotherapy; read-out: mono GI50
Experimental: as §1, §2, §3, §4, §5, §6

OVSAHO = conditions: Homo sapiens; OVSAHO ovarian; monotherapy; read-out: mono GI50
Experimental: as §1, §2, §3, §4, §5, §6

PSN1 = conditions: monotherapy, read-out: mono GI50
Experimental: as §1, §2, §3, §4, §5, §6

SK-OV-3 = conditions: Homo sapiens; SK-OV-3 ovarian; monotherapy; read-out: mono GI50
Experimental: as §1, §2, §3, §4, §5, §6

C[C@@H]1COCCN1c1cc(C2([S@](C)(=N)=O)CC2)nc(-c2ccnc3[nH]ccc23)n1 [AZD6738, 4-{4-[(3R)-3-Methylmorpholin-4-yl]-6-[1-((R)—S-methylsulfonimidoyl)cyclopropyl]pyrimidin-2-yl}-1H-pyrrolo[2,3-b]-pyridine]
GI50 (KE-39): 1.47 µM | GI50 (RKO): 1.02 µM | GI50 (Caov-3): 0.197 µM | GI50 (OVCAR-3): 0.37 µM | GI50 (PA-1): 1.22 µM | GI50 (BxPC-3; BxPC-3 pancreatic): 1.09 µM | GI50 (BxPC-3; Homo sapiens, BXPC-3, BxPC-3 pancreatic): 1.08 µM | GI50 (NCI-SNU-1): 1.09 µM | GI50 (SNU-668): 0.291 µM | GI50 (OVK18): 0.921 µM | GI50 (IM-95): 0.25 µM | GI50 (LS-513): 0.645 µM | GI50 (GCIY): 0.179 µM | GI50 (OV7): 1.92 µM | GI50 (OVSAHO): 0.581 µM | GI50 (PSN1; Homo sapiens, PSN1, PSN1 pancreatic): 0.859 µM | GI50 (PSN1; PSN1 pancreatic): 0.746 µM | GI50 (SK-OV-3): 1.28 µM
